Counter-ions that a name gives are not always drawn.
Legend:
tumor cell lines = assay: NCI sulforhodamine B assay, all cell lines; details: for CC50 / IC100 / GI50: Homo sapiens; for CC50 / IC100: 48 h; for CC50: read-out: Log10 LC50, Mean / MG-MID, all cell lines (converted); for IC100: read-out: Log10 TGI, Mean / MG-MID, all cell lines; for GI50: read-out: Log10 GI50, Mean / MG-MID, all cell lines (converted)
NSC Lung = assay: NCI assay, average per cancer type; details: for CC50 / GI50: Homo sapiens; for CC50: 48 h, read-out: Average LOG10 LC50; for GI50: read-out: Average LOG10 GI50
solid tumors = assay: NCI assay, mean potency in solid tumors; details: for CC50 / GI50: Homo sapiens; for CC50: 48 h, read-out: Average LOG10 LC50, Mean Potency in solid tumors; for GI50: read-out: Average LOG10 GI50, Mean Potency in solid tumors
Leukemia = assay: NCI assay, average per cancer type; details: for CC50: 48 h, read-out: Average LOG10 LC50; for GI50: read-out: Average LOG10 GI50

Row | Compound | CC50 (tumor cell lines) [µM] | IC100 (tumor cell lines) [µM] | GI50 (tumor cell lines) [µM] | CC50 (NSC Lung) [µM] | GI50 (NSC Lung) [µM] | CC50 (solid tumors) [µM] | GI50 (solid tumors) [µM] | CC50 (Leukemia) [µM] | GI50 (Leukemia) [µM] | antiproliferative and cytotoxic activity in words (tumor cell lines) | Average LOG10 LC50, Mean Potency in solid tumors (solid tumors; solid tumors, 2880 min) [log molar] | Log10 GI50, Mean / MG-MID (tumor cell lines; all cell lines) [log molar] | Log10 TGI, Mean / MG-MID (tumor cell lines; all cell lines) [log molar] | Average LOG10 GI50 (NSC Lung; NSC Lung) [log molar] | Average LOG10 GI50, Mean Potency in solid tumors (solid tumors; solid tumors) [log molar] | Average LOG10 GI50 (Leukemia; Leukemia) [log molar]
1 | CCOC(=O)[C@@H]1CC2=C(C(=O)c3c(c(O)c4ccccc4c3OC(C)=O)C2=O)[C@@H](O)O1 (mixture of isomers) [BCH-658, (1S,3S) and (1R,3R) Ethyl[11-acetoxy-1,6-dihydroxy-5,12-dioxo-3,4,5,12-tetrahydroanthraceno (2,3-c)pyran-3-yl]formate] | 100 | 97.7 | 70.8 | > 100 | > 100 | > 100 | 51.3 | > 100 | > 100 |  |  |  |  |  |  | 
2 | CCOC(=O)[C@@H]1CC2=C(C(=O)c3cc4ccccc4c(OC(C)=O)c3C2=O)[C@@H](O)O1 (mixture of isomers) [BCH-660, (1S,3S) and (1R,3R)-Ethyl-[6-acetoxy-1-hydroxy-5,12-dioxo-3,4,5,12-tetrahydroanthraceno (2,3-c)pyran-3-yl]formate] | 21.4 | 2.82 | 0.813 | 19.5 | 0.977 | 11.2 | 0.891 | > 100 | 0.316 | strong antiproliferative (GI50) and potent cytotoxic (LC50) activities |  |  |  |  |  | 
3 | COC(=O)[C@@H]1CC2=C(C(=O)c3c(c(OC)c4ccccc4c3O)C2=O)[C@@H](O[C@H]2C[C@H](NC(=O)C(F)(F)F)[C@H](O)[C@H](C)O2)O1 (mixture of isomers) [BCH-674, (1'S,1S,3R) and 1'S,1R,3S) Methyl(11-hydroxy-6-methoxy-1-[2',3',6'-trideoxy-3-trifluoroacetamido-4'-hydroxy-L-lyxohexopyranose]-5,12-dioxo-3,4,5,12-tetrahydroanthra-ceno[2,3-c]pyran-3-yl) formate] | 67.6 | 30.2 | 12.3 | 69.2 | 9.33 | 81.3 | 12.3 | > 100 | 8.71 |  | -4.09 ± 0.11 |  |  |  |  | 
4 | COC(=O)[C@H]1CC2=C(C(=O)c3c(c(OC)c4ccccc4c3O)C2=O)[C@H](O[C@H]2C[C@H](NC(=O)C(F)(F)F)[C@H](O)[C@H](C)O2)O1 (mixture of isomers) [BCH-675, (1'S,1S,3R) and 1'S,1R,3S) Methyl(11-hydroxy-6-methoxy-1-[2',3',6'-trideoxy-3-trifluoroacetamido-4'-hydroxy-L-lyxohexopyranose]-5,12-dioxo-3,4,5,12-tetrahydroanthra-ceno[2,3-c]pyran-3-yl) formate] | 57.5 | 21.4 | 7.94 | 56.2 | 9.33 | 66.1 | 8.32 | > 100 | 2.95 |  |  |  |  |  |  | 
5 | CCOC(=O)C1CC2=C(CO1)C(=O)c1c(cc3ccccc3c1O)C2=O (stereo not drawn) [BCH-651, Ethyl(6 and 11 hydroxy-5,12-dioxo-3,4,5,12-tetrahydro-anthraceno[2,3-c]pyran-3-yl)]formate] | 58.9 | 21.4 | 5.5 | 50.1 | 7.76 | 50.1 | 5.25 | > 100 | 3.31 | strong antiproliferative (GI50) and potent cytotoxic (LC50) activities |  |  |  |  |  | 
6 | CCOC(=O)C1CC2=C(CO1)C(=O)c1cc3ccccc3c(O)c1C2=O (stereo not drawn) [BCH-653, Ethyl(6 and 11 hydroxy-5,12-dioxo-3,4,5,12-tetrahydro-anthraceno[2,3-c]pyran-3-yl)]formate] | 100 | 100 | 42.7 | > 100 | 44.7 | > 100 | 39.8 | > 100 | 15.8 |  |  |  |  |  |  | 
7 | CCOC(=O)[C@@H]1CC2=C(C(=O)c3cc4ccccc4c(O)c3C2=O)[C@@H](O[C@H]2C[C@H](NC(=O)C(F)(F)F)[C@H](O)[C@H](C)O2)O1 [BCH-681, (1'S,1R,3S)Ethyl[6-hydroxy-5,12-dioxo-1-(3'-trifuloroacetamido-1-daunosaminyl)-3,4,5,12-tetrahydroanthraceno(2,3-C)pyran-3-yl]formate] | 16.2 | 5.5 | 2.14 | 22.9 | 2.88 | 12.3 | 2.09 | < 100 | 2.04 |  |  |  |  |  |  | 
8 | Methyl(11-hydroxy-5,12-dioxo-3,4,5,12-tetrahydroanthraceno[2,3-c]pyran-3-yl)ketone and Methyl(5-hydroxy-5,12-dioxo-3,4,5,12-tetrahydroanthraceno[2,3-c]pyran-3-yl)ketone [BCH-687] |  |  |  |  |  |  |  |  |  | significant antiproliferative (GI50) and cytotoxic (LC50) activities in solid tumors |  | -4.85 | -4.37 | -4.81 ± 0.35 | -4.87 ± 0.17 | -4.91 ± 0.12

— patent US5593970A, “Heterocyclic anthracycline analogs” (priority 1994, dated 1997)
